Data reported in US5977373A, “Thiadiazolyl and oxadiazolyl phenyl oxazolidinone antibacterial agents” (Pharmacia & Upjohn Company, priority 1998, dated 1999).
≈ marks a conversion by molar mass, not a printed value.

What was measured:
[1] = test system: S. Aureus UC ® 9213; assay: In vitro minimum inhibitory concentration (MIC) by agar dilution, gram-positive bacteria (Table 1); type: cell-based; conditions: Staphylococcus aureus, UC9213
From the text: (§1) The oxazolidinone antibacterial agents of this invention have useful activity against a variety of microorganisms. The in vitro activity of compounds of this invention can be assessed by standard testing procedures such as the determination of minimum inhibitory concentration (MIC) by agar dilution as described in "Methods for Dilution Antimicrobial Susceptibility Tests for Bacteria That Grow Aerobically" (MFT) published January 1983 by the National Committee for Clinical Laboratory Standards, 771 East Lancaster Avenue, Villanova, Pa. 19084, USA. The activity of selected compounds of this invention against Staphylococcus aureus and Streptococcus pneumoniae are shown in Table 1.

[2] = test system: S. pneumoniae UC ® 9912; assay: as above; type: cell-based; conditions: Streptococcus pneumoniae, UC9912
From the text: as §1

MIC [1] | MIC [2] | Compound
4 µg/mL (≈ 12.5 µM) | 1 µg/mL (≈ 3.12 µM) | CC(=O)NC[C@H]1CN(c2ccc(-c3ncon3)c(F)c2)C(=O)O1 [Example 36, (S)-N-[[3-[3-Fluoro-4-(1,2,4-oxadiazol-3-yl)phenyl]-2-oxo-5-oxazolidinyl]methyl]acetamide]
> 16 µg/mL | 1 µg/mL (≈ 2.75 µM) | CC(=O)NC[C@H]1CN(c2ccc(-c3noc(C(N)=O)n3)c(F)c2)C(=O)O1 [Example 37, (S)-3-[4-[5-[(Acetylamino)methyl]-2-oxo-3-oxazolidinyl]-2-fluorophenyl]-1,2,4-oxadiazole-5-carboxamide]
> 16 µg/mL | 2 µg/mL (≈ 5.79 µM) | CC(=O)NC[C@H]1CN(c2ccc(-c3noc(C#N)n3)c(F)c2)C(=O)O1 [Example 38, (S)-N-[[3-[4-(5-Cyano-1,2,4-oxadiazol-3-yl)-3-fluorophenyl]-2-oxo-5-oxazolidinyl]methyl]acetamide]
2 µg/mL (≈ 6.24 µM) | 0.5 µg/mL (≈ 1.56 µM) | CC(=O)NC[C@H]1CN(c2ccc(-c3ncno3)c(F)c2)C(=O)O1 [Example 40, (S)-N-[[3-[3-Fluoro-4-(1,2,4-oxadiazol-5-yl)phenyl]-2-oxo-5-oxazolidinyl]methyl]acetamide]
1 µg/mL (≈ 2.64 µM) | 0.25 µg/mL (≈ 0.661 µM) | CC(=O)NC[C@H]1CN(c2ccc(-c3nnc(C(C)C)s3)c(F)c2)C(=O)O1 [Example 48, (S)-N-[[3-[3-Fluoro-4-[5-(1-methylethyl)-1,3,4-thiadiazol-2-yl]phenyl]-2-oxo-5-oxazolidinyl]methyl]acetamide]
16 µg/mL (≈ 42.2 µM) | 2 µg/mL (≈ 5.27 µM) | CC(=O)NC[C@H]1CN(c2ccc(-c3nsc(C(N)=O)n3)c(F)c2)C(=O)O1 [Example 33, (S)-3-[4-[5-[(Acetylamino)methyl]-2-oxo-3-oxazolidinyl]-2-fluorophenyl]-1,2,4-thiadiazole-5-carboxamide]
1 µg/mL (≈ 2.51 µM) | < 0.125 µg/mL | CC(=O)NC[C@H]1CN(c2ccc(-c3nnc(CCCl)s3)c(F)c2)C(=O)O1 [Example 42, (S)-N-[[3-[4-[5-(2-Chloroethyl)-1,3,4-thiadiazol-2-yl]-3-fluorophenyl]-2-oxo-5-oxazolidinyl]methyl]acetamide]
2 µg/mL (≈ 5.31 µM) | 0.5 µg/mL (≈ 1.33 µM) | C/C=C/c1nnc(-c2ccc(N3C[C@H](CNC(C)=O)OC3=O)cc2F)s1 [Example 43, (S)-N-[[3-[3-Fluoro-4-[5-(1-propenyl)-1,3,4-thiadiazol-2-yl]phenyl]-2-oxo-5-oxazolidinyl]methyl]acetamide]
2 µg/mL (≈ 5.29 µM) | 0.5 µg/mL (≈ 1.32 µM) | CC(=O)NC[C@H]1CN(c2ccc(-c3nnc(C(C)=O)s3)c(F)c2)C(=O)O1 [Example 59, (S)-N-[[3-[4-(5-Acetyl-1,3,4-thiadiazol-2-yl)-3-fluorophenyl]-2-oxo-5-oxazolidinyl]methyl]acetamide]
2 µg/mL (≈ 5.26 µM) | 0.25 µg/mL (≈ 0.657 µM) | COCc1nnc(-c2ccc(N3C[C@H](CNC(C)=O)OC3=O)cc2F)s1 [Example 12, (S)-N-[[3-[3-Fluoro-4-[5-(methoxymethyl)-1,3,4-thiadiazol-2-yl]phenyl]-2-oxo-5-oxazolidinyl]methyl]acetamide]
1 µg/mL (≈ 2.97 µM) | 0.25 µg/mL (≈ 0.743 µM) | CC(=O)NC[C@H]1CN(c2ccc(-c3ncns3)c(F)c2)C(=O)O1 [Example 34, (S)-N-[[3-[3-Fluoro-4-(1,2,4-thiadiazol-5-yl)phenyl]-2-oxo-5-oxazolidinyl]methyl]acetamide]
1 µg/mL (≈ 2.64 µM) | 0.25 µg/mL (≈ 0.661 µM) | CCCc1nnc(-c2ccc(N3C[C@H](CNC(C)=O)OC3=O)cc2F)s1 [Example 5, (S)-N-[[3-[3-Fluoro-4-(5-propyl-1,3,4-thiadiazol-2-yl)phenyl]-2-oxo-5-oxazolidinyl]methyl]acetamide]

The next lines start with the molecule.

Compound | MIC [1] | MIC [2]
CC(=O)NC[C@H]1CN(c2ccc(-c3nnc(CNC(=O)COC(C)=O)s3)c(F)c2)C(=O)O1 [Example 66] | 16 µg/mL (≈ 34.4 µM) | < 0.5 µg/mL
CC(=O)NC[C@H]1CN(c2ccc(-c3nnc(CC(C)O)s3)c(F)c2)C(=O)O1 (stereo partly drawn) [Example 28, (5S)-N-[[3-[3-Fluoro-4-[5-(2-hydroxypropyl)-1,3,4-thiadiazol-2-yl]phenyl]-2-oxo-5-oxazolidinyl]methyl]acetamide] | 2 µg/mL (≈ 5.07 µM) | 0.25 µg/mL (≈ 0.634 µM)
CCOC(=O)Cc1nnc(-c2ccc(N3C[C@H](CNC(C)=O)OC3=O)cc2F)s1 [Example 25, (S)-Ethyl 5-[4-[5-[(acetylamino)methyl]-2-oxo-3-oxazolidinyl]-2-fluorophenyl]-1,3,4-thiadiazole-2-acetate] | 2 µg/mL (≈ 4.73 µM) | 0.25 µg/mL (≈ 0.592 µM)
CSCc1nnc(-c2ccc(N3C[C@H](CNC(C)=O)OC3=O)cc2F)s1 [Example 21, (S)-N-[[3-[3-Fluoro-4-[5-[(methylthio)methyl]-1,3,4-thiadiazol-2-yl]phenyl]-2-oxo-5-oxazolidinyl]methyl]acetamide] | 1 µg/mL (≈ 2.52 µM) | 0.25 µg/mL (≈ 0.631 µM)
CC(=O)NC[C@H]1CN(c2ccc(-c3nnc(CCC(C)O)s3)c(F)c2)C(=O)O1 (stereo partly drawn) [Example 17, (5S)-N-[[3-[3-Fluoro-4-[5-(3-hydroxybutyl)-1,3,4-thiadiazol-2-yl]phenyl]-2-oxo-5-oxazolidinyl]methyl]acetamide] | 2 µg/mL (≈ 4.9 µM) | 0.25 µg/mL (≈ 0.612 µM)
CC(=O)NC[C@H]1CN(c2ccc(-c3nnc(C[S+](C)[O-])s3)c(F)c2)C(=O)O1 (stereo partly drawn) [Example 22, (S)-N-[[3-[3-Fluoro-4-[5-[(methylsulfinyl)methyl]-1,3,4-thiadiazol-2-yl]phenyl]-2-oxo-5-oxazolidinyl]methyl]acetamide] | 8 µg/mL (≈ 19.4 µM) | 0.25 µg/mL (≈ 0.606 µM)
CC(=O)NC[C@H]1CN(c2ccc(-c3nnc(CNC(=O)CO)s3)c(F)c2)C(=O)O1 [Example 67] | 16 µg/mL (≈ 37.8 µM) | < 0.5 µg/mL
CCC(=O)NC[C@H]1CN(c2ccc(-c3nnc(CCOC)s3)c(F)c2)C(=O)O1 [Example 72, (S)-N-[[3-[3-Fluoro-4-[5-(2-methoxyethyl)-1,3,4-thiadiazol-2-yl]phenyl]-2-oxo-5-oxazolidinyl]methyl]propanamide] | 4 µg/mL (≈ 9.79 µM) | 0.25 µg/mL (≈ 0.612 µM)
CC(=O)NC[C@H]1CN(c2ccc(-c3nnc(CCN)s3)c(F)c2)C(=O)O1 [Example 44, (S)-N-[[3-[4-[5-(2-Aminoethyl)-1,3,4-thiadiazol-2-yl]-3-fluorophenyl]-2-oxo-5-oxazolidinyl]methyl]acetamide] | > 16 µg/mL | 0.25 µg/mL (≈ 0.659 µM)
CCOC(=O)c1nnc(-c2ccc(N3C[C@H](CNC(C)=O)OC3=O)cc2F)s1 [Example 27, (S)-Ethyl 5-[4-[5-[(acetylamino)methyl]-2-oxo-3-oxazolidinyl]-2-fluorophenyl]-1,3,4-thiadiazole-2-carboxylate] | 8 µg/mL (≈ 19.6 µM) | < 0.125 µg/mL
CC(=O)NCCCc1nnc(-c2ccc(N3C[C@H](CNC(C)=O)OC3=O)cc2F)s1 [Example 58, (S)-N-[3-[5-[4-[5-[(Acetylamino)methyl]-2-oxo-3-oxazolidinyl]-2-fluorophenyl]-1,3,4-thiadiazol-2-yl]propyl]acetamide] | 8 µg/mL (≈ 18.4 µM) | 0.25 µg/mL (≈ 0.574 µM)
CC(=O)NCc1nnc(-c2ccc(N3C[C@H](CNC(C)=O)OC3=O)cc2F)s1 [Example 49, (S)-N-[[5-[4-[5-[(Acetylamino)methyl]-2-oxo-3-oxazolidinyl]-2-fluorophenyl]-1,3,4-thiadiazol-2-yl]methyl]acetamide] | 16 µg/mL (≈ 39.3 µM) | 0.25 µg/mL (≈ 0.614 µM)
CC(=O)NC[C@H]1CN(c2ccc(-c3nnc(S(C)(=O)=O)s3)c(F)c2)C(=O)O1 [Example 62, (S)-N-[[3-[3-Fluoro-4-[5-(methylsulfonyl)-1,3,4-thiadiazol-2-yl]phenyl]-2-oxo-5-oxazolidinyl]methyl]acetamide] | 2 µg/mL (≈ 4.83 µM) | 0.5 µg/mL (≈ 1.21 µM)
CC(=O)NC[C@H]1CN(c2ccc(-c3nnc(CCNS(C)(=O)=O)s3)c(F)c2)C(=O)O1 [Example 46, (S)-N-[[3-[3-Fluoro-4-[5-[2-[(methylsulfonyl)amino]ethyl]-1,3,4-thiadiazol-2-yl]phenyl]-2-oxo-5-oxazolidinyl]methyl]acetamide] | 16 µg/mL (≈ 35 µM) | 0.5 µg/mL (≈ 1.09 µM)
CC(=O)NC[C@H]1CN(c2ccc(-c3nnc(C(F)(F)F)s3)c(F)c2)C(=O)O1 [Example 15, (S)-N-[[3-[3-Fluoro-4-[5-(trifluoromethyl)-1,3,4-thiadiazol-2-yl]phenyl]-2-oxo-5-oxazolidinyl]methyl]acetamide] | 2 µg/mL (≈ 4.95 µM) | 0.5 µg/mL (≈ 1.24 µM)
CC(=O)NC[C@H]1CN(c2ccc(-c3nnc(NC(=O)COC(C)=O)s3)c(F)c2)C(=O)O1 [Example 68, (S)-N-[5-[4-[5-[(Acetylamino)methyl]-2-oxo-3-oxazolidinyl]-2-fluorophenyl]-1,3,4-thiadiazol-2-yl]-2-(acetyloxy)acetamide] | 8 µg/mL (≈ 17.7 µM) | 2 µg/mL (≈ 4.43 µM)
CC(=O)NCCc1nnc(-c2ccc(N3C[C@H](CNC(C)=O)OC3=O)cc2F)s1 [Example 45, (S)-N-[[3-[4-[5-[2-(Acetylamino)ethyl]-1,3,4-thiadiazol-2-yl]-3-fluorophenyl]-2-oxo-5-oxazolidinyl]methyl]acetamide] | 16 µg/mL (≈ 38 µM) | 0.5 µg/mL (≈ 1.19 µM)
CSCCc1nnc(-c2ccc(N3C[C@H](CNC(C)=O)OC3=O)cc2F)s1 [Example 23, (S)-N-[[3-[3-Fluoro-4-[5-[2-(methylthio)ethyl]-1,3,4-thiadiazol-2-yl]phenyl]-2-oxo-5-oxazolidinyl]methyl]acetamide] | 1 µg/mL (≈ 2.44 µM) | 0.25 µg/mL (≈ 0.609 µM)
CON=C(C)CCc1nnc(-c2ccc(N3C[C@H](CNC(C)=O)OC3=O)cc2F)s1 [Example 65, (S)-N-[[3-[3-Fluoro-4-[5-[3-(methoxyimino)butyl]-1,3,4-thiadiazol-2-yl]phenyl]-2-oxo-5-oxazolidinyl]methyl]acetamide] | 8 µg/mL (≈ 18.4 µM) | 2 µg/mL (≈ 4.59 µM)
CC(=O)NC[C@H]1CN(c2ccc(-c3nnc(CCCCl)s3)c(F)c2)C(=O)O1 [Example 60, (S)-N-[[3-[4-[5-(3-Chloropropyl)-1,3,4-thiadiazol-2-yl]-3-fluorophenyl]-2-oxo-5-oxazolidinyl]methyl]acetamide] | 2 µg/mL (≈ 4.84 µM) | 0.5 µg/mL (≈ 1.21 µM)
